Experiments:
Set-up in all cases: scale not given: the % may be the effect or the level left
[1] = biological target: Serine/threonine-protein kinase 33 (Homo sapiens) (UniProt Q9BYT3); experiment: Inhibition of human STK33 assessed as enzyme activity at 1 uM relative to control
[2] = biological target: Fibroblast growth factor receptor 4 (Homo sapiens) (UniProt P22455); experiment: Inhibition of human FGFR4 assessed as enzyme activity at 1 uM relative to control
[3] = biological target: NUAK family SNF1-like kinase 1 (Homo sapiens) (UniProt O60285); experiment: Inhibition of human ARK5 assessed as enzyme activity at 1 uM relative to control
NUAK family SNF1-like kinase 1 (Homo sapiens), sequence (O60285 whole entry): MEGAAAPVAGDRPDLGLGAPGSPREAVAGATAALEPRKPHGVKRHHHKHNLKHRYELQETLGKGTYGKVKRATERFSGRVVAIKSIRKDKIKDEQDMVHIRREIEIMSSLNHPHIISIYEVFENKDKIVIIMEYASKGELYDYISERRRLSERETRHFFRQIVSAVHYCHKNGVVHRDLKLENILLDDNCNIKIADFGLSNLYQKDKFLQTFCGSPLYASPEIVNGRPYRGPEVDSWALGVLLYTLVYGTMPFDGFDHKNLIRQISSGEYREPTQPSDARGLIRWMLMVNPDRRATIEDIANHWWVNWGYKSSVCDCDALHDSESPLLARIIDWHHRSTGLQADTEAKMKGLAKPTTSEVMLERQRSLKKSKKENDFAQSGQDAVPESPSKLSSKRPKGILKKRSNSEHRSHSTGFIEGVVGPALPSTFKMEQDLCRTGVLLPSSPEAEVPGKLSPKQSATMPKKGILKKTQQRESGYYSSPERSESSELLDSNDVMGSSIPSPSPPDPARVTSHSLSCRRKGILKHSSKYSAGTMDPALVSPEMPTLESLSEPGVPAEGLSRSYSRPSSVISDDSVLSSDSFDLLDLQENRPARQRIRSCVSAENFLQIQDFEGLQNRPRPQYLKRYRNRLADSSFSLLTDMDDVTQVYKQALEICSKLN

[4] = biological target: Calcium/calmodulin-dependent protein kinase type 1D (Homo sapiens) (UniProt Q8IU85); experiment: Inhibition of human CAMK1d assessed as enzyme activity at 1 uM relative to control
Calcium/calmodulin-dependent protein kinase type 1D (Homo sapiens), sequence (Q8IU85 whole entry, looked up): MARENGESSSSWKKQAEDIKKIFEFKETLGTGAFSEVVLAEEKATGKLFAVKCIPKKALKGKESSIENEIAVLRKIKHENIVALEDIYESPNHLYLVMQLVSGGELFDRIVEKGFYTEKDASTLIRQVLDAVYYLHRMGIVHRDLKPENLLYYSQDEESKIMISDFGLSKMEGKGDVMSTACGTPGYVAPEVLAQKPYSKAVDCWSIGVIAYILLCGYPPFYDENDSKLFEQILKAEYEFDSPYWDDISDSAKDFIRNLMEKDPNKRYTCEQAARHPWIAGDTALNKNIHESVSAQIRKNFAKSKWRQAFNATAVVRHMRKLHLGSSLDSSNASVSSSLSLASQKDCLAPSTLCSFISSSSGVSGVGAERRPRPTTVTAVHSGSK

[5] = biological target: Activin receptor type-1B (Homo sapiens) (UniProt P36896); experiment: Inhibition of human ALK4 assessed as enzyme activity at 1 uM relative to control
Activin receptor type-1B (Homo sapiens), sequence (P36896 whole entry): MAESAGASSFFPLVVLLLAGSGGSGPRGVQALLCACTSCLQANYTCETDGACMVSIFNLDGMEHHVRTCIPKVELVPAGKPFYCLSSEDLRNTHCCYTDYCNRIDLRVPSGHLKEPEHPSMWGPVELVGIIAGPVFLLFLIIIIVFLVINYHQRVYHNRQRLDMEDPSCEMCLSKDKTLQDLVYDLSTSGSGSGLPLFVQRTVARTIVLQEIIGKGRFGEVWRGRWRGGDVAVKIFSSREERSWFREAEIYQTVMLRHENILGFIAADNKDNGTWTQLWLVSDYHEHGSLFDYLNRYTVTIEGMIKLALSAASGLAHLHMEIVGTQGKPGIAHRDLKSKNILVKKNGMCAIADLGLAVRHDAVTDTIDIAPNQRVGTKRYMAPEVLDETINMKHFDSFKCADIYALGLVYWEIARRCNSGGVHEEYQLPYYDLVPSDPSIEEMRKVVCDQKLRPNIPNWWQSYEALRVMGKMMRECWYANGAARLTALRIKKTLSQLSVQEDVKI

[6] = biological target: Serine/threonine-protein kinase 3 (Homo sapiens) (UniProt Q13188); experiment: Inhibition of human MST2 assessed as enzyme activity at 1 uM relative to control
Serine/threonine-protein kinase 3 (Homo sapiens), sequence (Q13188 whole entry): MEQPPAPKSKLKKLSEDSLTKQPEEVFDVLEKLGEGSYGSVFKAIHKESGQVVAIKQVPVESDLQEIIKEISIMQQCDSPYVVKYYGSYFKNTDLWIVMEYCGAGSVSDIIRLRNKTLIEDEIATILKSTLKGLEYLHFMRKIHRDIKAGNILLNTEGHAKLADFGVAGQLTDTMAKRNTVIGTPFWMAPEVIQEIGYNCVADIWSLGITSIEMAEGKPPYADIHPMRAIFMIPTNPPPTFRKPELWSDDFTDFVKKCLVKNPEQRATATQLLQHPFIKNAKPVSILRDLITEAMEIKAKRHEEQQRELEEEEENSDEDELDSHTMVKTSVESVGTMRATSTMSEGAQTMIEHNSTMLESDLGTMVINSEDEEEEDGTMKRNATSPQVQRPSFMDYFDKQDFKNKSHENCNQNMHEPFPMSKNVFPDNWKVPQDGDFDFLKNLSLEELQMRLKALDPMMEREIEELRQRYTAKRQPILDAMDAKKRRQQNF

[7] = biological target: cAMP-dependent protein kinase catalytic subunit alpha (Homo sapiens) (UniProt P17612); experiment: Inhibition of human PKAC-alpha assessed as enzyme activity at 1 uM relative to control

Fibroblast growth factor receptor 4 (Homo sapiens), sequence (P22455 22-802 limits assumed): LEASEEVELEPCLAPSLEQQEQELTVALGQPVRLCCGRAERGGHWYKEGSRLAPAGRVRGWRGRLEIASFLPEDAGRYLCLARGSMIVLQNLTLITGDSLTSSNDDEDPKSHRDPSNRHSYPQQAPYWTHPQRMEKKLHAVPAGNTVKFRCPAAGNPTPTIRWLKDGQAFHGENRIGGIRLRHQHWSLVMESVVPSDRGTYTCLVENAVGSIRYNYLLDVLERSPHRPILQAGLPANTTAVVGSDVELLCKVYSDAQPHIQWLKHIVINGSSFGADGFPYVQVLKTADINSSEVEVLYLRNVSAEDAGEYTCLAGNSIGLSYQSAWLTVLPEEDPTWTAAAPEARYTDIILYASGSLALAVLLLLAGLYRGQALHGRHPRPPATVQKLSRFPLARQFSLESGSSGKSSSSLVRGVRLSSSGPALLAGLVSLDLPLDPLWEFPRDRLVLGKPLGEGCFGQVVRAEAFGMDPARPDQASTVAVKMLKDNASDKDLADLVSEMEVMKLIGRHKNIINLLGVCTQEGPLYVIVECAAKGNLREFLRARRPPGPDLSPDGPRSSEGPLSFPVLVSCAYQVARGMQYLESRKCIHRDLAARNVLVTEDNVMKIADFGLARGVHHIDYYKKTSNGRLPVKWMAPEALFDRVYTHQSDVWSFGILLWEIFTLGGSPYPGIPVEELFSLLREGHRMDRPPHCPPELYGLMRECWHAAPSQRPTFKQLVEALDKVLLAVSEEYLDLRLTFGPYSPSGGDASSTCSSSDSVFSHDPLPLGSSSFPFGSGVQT
Serine/threonine-protein kinase 33 (Homo sapiens), sequence (Q9BYT3 whole entry, looked up): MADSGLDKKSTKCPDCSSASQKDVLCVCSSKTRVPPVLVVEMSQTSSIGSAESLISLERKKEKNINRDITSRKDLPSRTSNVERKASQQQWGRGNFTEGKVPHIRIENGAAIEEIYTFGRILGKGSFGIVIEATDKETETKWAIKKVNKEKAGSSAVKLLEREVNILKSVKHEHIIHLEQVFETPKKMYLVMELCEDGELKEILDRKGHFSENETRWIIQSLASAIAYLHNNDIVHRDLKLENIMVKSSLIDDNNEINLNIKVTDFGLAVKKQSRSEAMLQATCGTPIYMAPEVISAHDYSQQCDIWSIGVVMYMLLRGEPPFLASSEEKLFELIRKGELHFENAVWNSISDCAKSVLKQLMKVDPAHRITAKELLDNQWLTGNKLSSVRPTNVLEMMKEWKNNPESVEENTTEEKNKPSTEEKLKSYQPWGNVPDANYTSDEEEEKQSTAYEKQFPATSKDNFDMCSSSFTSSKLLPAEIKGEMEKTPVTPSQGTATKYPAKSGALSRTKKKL

CCCS(=O)(=O)Nc1cccc(Nc2ccc3ncn(C)c(=O)c3c2)c1C#N
Activity [1]: 91% | Activity [2]: 134% | Activity [3]: 109% | Activity [4]: 116% | Activity [5]: 109% | Activity [6]: 99.5% | Activity [7]: 110%

From ChEMBL document CHEMBL3232845 (Bioorg Med Chem Lett, 2014)
